{"source": "ChEMBL document CHEMBL1130119", "about": "“2-Carbomethoxy-3-aryl-8-oxabicyclo[3.2.1]octanes: potent non-nitrogen inhibitors of monoamine transporters” (J Med Chem, 1997)"}
{"target": "Sodium-dependent serotonin transporter (Homo sapiens, UniProt P31645)", "sequence (P31645 whole entry)": "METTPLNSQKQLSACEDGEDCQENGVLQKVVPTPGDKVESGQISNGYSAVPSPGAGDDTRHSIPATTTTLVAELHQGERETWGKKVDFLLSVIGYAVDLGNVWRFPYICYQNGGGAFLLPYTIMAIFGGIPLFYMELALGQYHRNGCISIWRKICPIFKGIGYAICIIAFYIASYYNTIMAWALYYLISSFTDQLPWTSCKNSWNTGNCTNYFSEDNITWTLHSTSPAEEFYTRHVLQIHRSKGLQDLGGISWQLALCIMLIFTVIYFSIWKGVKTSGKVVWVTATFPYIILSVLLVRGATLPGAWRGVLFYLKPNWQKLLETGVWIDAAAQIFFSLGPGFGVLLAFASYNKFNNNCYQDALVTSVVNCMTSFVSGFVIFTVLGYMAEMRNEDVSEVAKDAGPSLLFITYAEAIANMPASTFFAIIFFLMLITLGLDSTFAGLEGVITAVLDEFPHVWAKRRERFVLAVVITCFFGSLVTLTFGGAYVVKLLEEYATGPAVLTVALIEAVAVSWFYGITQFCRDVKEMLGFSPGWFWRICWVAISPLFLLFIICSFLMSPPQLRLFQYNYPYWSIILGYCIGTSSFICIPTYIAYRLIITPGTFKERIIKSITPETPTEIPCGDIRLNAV", "assay": "Inhibition of [3H]citalopram binding to the serotonin transporter (5-HT) in monkey caudate-putamen.", "assay_type": "tissue-based, Cercopithecidae", "settings": "target entry is the homologue from another species", "units": {"IC50": "nM"}}
{"smiles": "COC(=O)C1C2CCC(CC1c1ccc(I)cc1)O2", "note": "(stereo in doubt) [listing 1 of 2 here]", "IC50": 12}
{"smiles": "COC(=O)C1C2CCC(CC1c1ccccc1)O2", "note": "(stereo in doubt; 6a (O-904)) [listing 1 of 2 here]", "IC50": "> 10000"}
{"smiles": "COC(=O)C1C2CCC(CC1c1ccc(F)cc1)O2", "note": "(stereo in doubt; 6b (O-895)) [listing 1 of 2 here]", "IC50": 2580}
{"smiles": "COC(=O)C1C2CCC(CC1c1ccc(Cl)cc1)O2", "note": "(stereo in doubt; 6c (O-916)) [listing 1 of 2 here]", "IC50": 107}
{"smiles": "COC(=O)C1C2CCC(CC1c1ccc(Cl)c(Cl)c1)O2", "note": "(stereo in doubt; 6f (O-914)) [listing 1 of 2 here]", "IC50": 6.52}
{"smiles": "COC(=O)C1C2CCC(CC1c1ccccc1)O2", "note": "(stereo in doubt; 7a (O-905)) [listing 1 of 2 here]", "IC50": 11400}
{"smiles": "COC(=O)C1C2CCC(CC1c1ccc(F)cc1)O2", "note": "(stereo in doubt; 7b (O-899)) [listing 1 of 2 here]", "IC50": "> 10000"}
{"smiles": "COC(=O)C1C2CCC(CC1c1ccc(Cl)cc1)O2", "note": "(stereo in doubt; 7c (O-915)) [listing 1 of 2 here]", "IC50": 816}
{"smiles": "COC(=O)C1C2CCC(CC1c1ccc(I)cc1)O2", "note": "(stereo in doubt; 7e (O-949)) [listing 1 of 2 here]", "IC50": 72}
{"smiles": "COC(=O)C1C2CCC(CC1c1ccc(Cl)c(Cl)c1)O2", "note": "(stereo in doubt; 7f (O-913)) [listing 1 of 2 here]", "IC50": 64.5}
{"smiles": "COC(=O)C1C(c2ccc(I)cc2)CC2CCC1N2C", "note": "(stereo in doubt; 8d)", "IC50": 4.21}
{"smiles": "COC(=O)[C@H]1[C@@H](c2ccc(F)cc2)C[C@H]2CC[C@H]1N2C", "note": "(stereo in doubt; 19b)", "IC50": 5060}
{"smiles": "COC(=O)C1C(c2ccc(I)cc2)CC2CCC1N2C", "note": "(stereo in doubt; 19d)", "IC50": 64.9}
{"smiles": "COC(=O)C1C2CCC(CC1c1ccc(Cl)c(Cl)c1)O2", "note": "(stereo in doubt; form 1) [listing 1 of 2 here]", "IC50": 58}
{"smiles": "COC(=O)C1C(c2ccc(Cl)c(Cl)c2)CC2CCC1N2C", "note": "(stereo in doubt; form 1)", "IC50": 27}
{"smiles": "COC(=O)C1C2CCC(CC1c1ccc(Br)cc1)O2", "note": "(stereo in doubt; form 1) [listing 1 of 2 here]", "IC50": 30}
{"smiles": "COC(=O)C1C2CCC(CC1c1ccc(Cl)c(Cl)c1)O2", "note": "(stereo in doubt; form 2) [listing 1 of 2 here]", "IC50": 2860}
{"smiles": "COC(=O)C1C2CCC(CC1c1ccc(Br)cc1)O2", "note": "(stereo in doubt; form 2) [listing 1 of 2 here]", "IC50": 276}
{"smiles": "COC(=O)C1C2CCC(CC1c1ccc(Cl)c(Cl)c1)O2", "note": "(stereo in doubt; form 3) [listing 1 of 2 here]", "IC50": 31}
{"smiles": "COC(=O)C1C2CCC(CC1c1ccc(Cl)c(Cl)c1)O2", "note": "(stereo in doubt; form 4) [listing 1 of 2 here]", "IC50": 4.67}
{"target": "Monoamine transporters; serotonin & dopamine (Homo sapiens) (UniProt P31645+Q01959)", "sequence (P31645 whole entry, looked up)": "as the sequence (P31645 whole entry) above", "sequence (Q01959 whole entry, looked up)": "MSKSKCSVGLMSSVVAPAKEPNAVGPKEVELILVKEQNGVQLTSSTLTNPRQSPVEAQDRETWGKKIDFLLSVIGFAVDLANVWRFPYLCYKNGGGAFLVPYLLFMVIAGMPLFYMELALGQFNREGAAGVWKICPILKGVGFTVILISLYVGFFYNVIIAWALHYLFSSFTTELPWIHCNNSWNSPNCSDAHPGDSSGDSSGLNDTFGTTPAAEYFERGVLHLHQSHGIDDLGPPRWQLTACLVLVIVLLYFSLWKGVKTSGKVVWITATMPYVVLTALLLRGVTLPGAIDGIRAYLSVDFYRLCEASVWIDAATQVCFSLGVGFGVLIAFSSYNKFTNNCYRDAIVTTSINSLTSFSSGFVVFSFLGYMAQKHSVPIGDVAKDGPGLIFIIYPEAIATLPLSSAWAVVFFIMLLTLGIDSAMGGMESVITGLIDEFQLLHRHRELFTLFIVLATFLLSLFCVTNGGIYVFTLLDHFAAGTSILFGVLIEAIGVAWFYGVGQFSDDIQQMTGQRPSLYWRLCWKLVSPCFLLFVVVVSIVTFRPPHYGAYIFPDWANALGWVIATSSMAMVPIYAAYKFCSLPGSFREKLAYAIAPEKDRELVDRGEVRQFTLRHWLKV", "assay": "Selectivity ratio measured as the IC50 ratio of DAT receptor to that of 5-HT transporter", "settings": "Cercopithecidae"}
{"smiles": "COC(=O)C1C2CCC(CC1c1ccc(I)cc1)O2", "note": "(stereo in doubt) [listing 2 of 2 here]", "Selectivity ratio": 1.7}
{"smiles": "COC(=O)C1C2CCC(CC1c1ccccc1)O2", "note": "(stereo in doubt; 6a (O-904)) [listing 2 of 2 here]", "Selectivity ratio": 10}
{"smiles": "COC(=O)C1C2CCC(CC1c1ccc(F)cc1)O2", "note": "(stereo in doubt; 6b (O-895)) [listing 2 of 2 here]", "Selectivity ratio": 5}
{"smiles": "COC(=O)C1C2CCC(CC1c1ccc(Cl)cc1)O2", "note": "(stereo in doubt; 6c (O-916)) [listing 2 of 2 here]", "Selectivity ratio": 11}
{"smiles": "COC(=O)C1C2CCC(CC1c1ccc(Cl)c(Cl)c1)O2", "note": "(stereo in doubt; 6f (O-914)) [listing 2 of 2 here]", "Selectivity ratio": 2}
{"smiles": "COC(=O)C1C2CCC(CC1c1ccccc1)O2", "note": "(stereo in doubt; 7a (O-905)) [listing 2 of 2 here]", "Selectivity ratio": 6}
{"smiles": "COC(=O)C1C2CCC(CC1c1ccc(F)cc1)O2", "note": "(stereo in doubt; 7b (O-899)) [listing 2 of 2 here]", "Selectivity ratio": 10}
{"smiles": "COC(=O)C1C2CCC(CC1c1ccc(Cl)cc1)O2", "note": "(stereo in doubt; 7c (O-915)) [listing 2 of 2 here]", "Selectivity ratio": 29}
{"smiles": "COC(=O)C1C2CCC(CC1c1ccc(I)cc1)O2", "note": "(stereo in doubt; 7e (O-949)) [listing 2 of 2 here]", "Selectivity ratio": 2}
{"smiles": "COC(=O)C1C2CCC(CC1c1ccc(Cl)c(Cl)c1)O2", "note": "(stereo in doubt; 7f (O-913)) [listing 2 of 2 here]", "Selectivity ratio": 21}
{"smiles": "COC(=O)C1C2CCC(CC1c1ccc(Br)cc1)O2", "note": "(stereo in doubt; form 1) [listing 2 of 2 here]", "Selectivity ratio": 1.4}
{"smiles": "COC(=O)C1C2CCC(CC1c1ccc(Cl)c(Cl)c1)O2", "note": "(stereo in doubt; form 1) [listing 2 of 2 here]", "Selectivity ratio": 1.2}
{"smiles": "COC(=O)C1C2CCC(CC1c1ccc(Br)cc1)O2", "note": "(stereo in doubt; form 2) [listing 2 of 2 here]", "Selectivity ratio": 31}
{"smiles": "COC(=O)C1C2CCC(CC1c1ccc(Cl)c(Cl)c1)O2", "note": "(stereo in doubt; form 2) [listing 2 of 2 here]", "Selectivity ratio": 51}
{"smiles": "COC(=O)C1C2CCC(CC1c1ccc(Cl)c(Cl)c1)O2", "note": "(stereo in doubt; form 3) [listing 2 of 2 here]", "Selectivity ratio": 13}
{"smiles": "COC(=O)C1C2CCC(CC1c1ccc(Cl)c(Cl)c1)O2", "note": "(stereo in doubt; form 4) [listing 2 of 2 here]", "Selectivity ratio": 1.4}
